Laboratory results as given in the NIST ThermoML archive (doi:10.1016/j.jct.2015.12.029).
± gives the expanded uncertainty stated by the source.

Assay: mn = molality of the nth substance listed, in mol/kg
Settings: 100 kPa, Liquid; for molar conductivity: Alternating current cell with electrodes; for mass density: Vibrating tube method, m1 = 0.009397

Compound `CCn1cc[n+](C)c1.F[B-](F)(F)F` [1-ethyl-3-methylimidazolium tetrafluoroborate] + CCCCO has a molar conductivity (283.15 K, m1 = 3.974e-05) of 0.00127 ± 1.3e-05 S·m2/mol, a molar conductivity (283.15 K, m1 = 6.936e-05) of 0.001204 ± 1.2e-05 S·m2/mol and a molar conductivity (283.15 K, m1 = 0.0001047) of 0.00115 ± 1.2e-05 S·m2/mol. It also gave a molar conductivity (283.15 K, m1 = 0.0001865) of 0.00106 ± 1.1e-05 S·m2/mol, a molar conductivity (283.15 K, m1 = 0.0002945) of 0.000977 ± 1.1e-05 S·m2/mol and a molar conductivity (283.15 K, m1 = 0.0004005) of 0.000913 ± 1e-05 S·m2/mol. It also gave a molar conductivity (283.15 K, m1 = 0.000688) of 0.000802 ± 9e-06 S·m2/mol, a molar conductivity (283.15 K, m1 = 0.0009724) of 0.000729 ± 8e-06 S·m2/mol and a molar conductivity (283.15 K, m1 = 0.001464) of 0.000642 ± 8e-06 S·m2/mol. The molar conductivity (283.15 K, m1 = 0.001942) was 0.000597 ± 7e-06 S·m2/mol, the molar conductivity (283.15 K, m1 = 0.002839) was 0.000519 ± 7e-06 S·m2/mol and the mass density (283.15 K) was 817.716 ± 0.22 kg/m3. For the same compound, the molar conductivity (288.15 K, m1 = 3.974e-05) was 0.00144 ± 1.5e-05 S·m2/mol, the molar conductivity (288.15 K, m1 = 6.936e-05) was 0.00138 ± 1.4e-05 S·m2/mol and the molar conductivity (288.15 K, m1 = 0.0001047) was 0.00132 ± 1.4e-05 S·m2/mol. For the same compound, the molar conductivity (288.15 K, m1 = 0.0001865) was 0.00121 ± 1.3e-05 S·m2/mol, the molar conductivity (288.15 K, m1 = 0.0002945) was 0.00111 ± 1.2e-05 S·m2/mol and the molar conductivity (288.15 K, m1 = 0.0004005) was 0.00104 ± 1.1e-05 S·m2/mol. The molar conductivity (288.15 K, m1 = 0.000688) was 0.000915 ± 1.1e-05 S·m2/mol, the molar conductivity (288.15 K, m1 = 0.0009724) was 0.00083 ± 9e-06 S·m2/mol and the molar conductivity (288.15 K, m1 = 0.001464) was 0.000733 ± 9e-06 S·m2/mol. It also gave a molar conductivity (288.15 K, m1 = 0.001942) of 0.000668 ± 8e-06 S·m2/mol, a molar conductivity (288.15 K, m1 = 0.002839) of 0.000592 ± 8e-06 S·m2/mol and a mass density (288.15 K) of 813.954 ± 0.22 kg/m3. The molar conductivity (293.15 K, m1 = 3.974e-05) was 0.00165 ± 1.7e-05 S·m2/mol, the molar conductivity (293.15 K, m1 = 6.936e-05) was 0.00158 ± 1.6e-05 S·m2/mol and the molar conductivity (293.15 K, m1 = 0.0001047) was 0.001505 ± 1.5e-05 S·m2/mol. The molar conductivity (293.15 K, m1 = 0.0001865) was 0.00138 ± 1.5e-05 S·m2/mol, the molar conductivity (293.15 K, m1 = 0.0002945) was 0.00127 ± 1.4e-05 S·m2/mol and the molar conductivity (293.15 K, m1 = 0.0004005) was 0.00119 ± 1.3e-05 S·m2/mol. It also gave a molar conductivity (293.15 K, m1 = 0.000688) of 0.00104 ± 1.2e-05 S·m2/mol, a molar conductivity (293.15 K, m1 = 0.0009724) of 0.000943 ± 1.1e-05 S·m2/mol and a molar conductivity (293.15 K, m1 = 0.001464) of 0.000833 ± 1e-05 S·m2/mol. For the same compound, the molar conductivity (293.15 K, m1 = 0.001942) was 0.000762 ± 9e-06 S·m2/mol, the molar conductivity (293.15 K, m1 = 0.002839) was 0.000671 ± 9e-06 S·m2/mol and the mass density (293.15 K) was 810.164 ± 0.22 kg/m3. It also gave a molar conductivity (298.15 K, m1 = 3.974e-05) of 0.00188 ± 1.9e-05 S·m2/mol, a molar conductivity (298.15 K, m1 = 6.936e-05) of 0.0018 ± 1.8e-05 S·m2/mol and a molar conductivity (298.15 K, m1 = 0.0001047) of 0.00172 ± 1.8e-05 S·m2/mol. The molar conductivity (298.15 K, m1 = 0.0001865) was 0.00157 ± 1.7e-05 S·m2/mol, the molar conductivity (298.15 K, m1 = 0.0002945) was 0.00144 ± 1.6e-05 S·m2/mol and the molar conductivity (298.15 K, m1 = 0.0004005) was 0.00134 ± 1.4e-05 S·m2/mol. The molar conductivity (298.15 K, m1 = 0.000688) was 0.00117 ± 1.4e-05 S·m2/mol, the molar conductivity (298.15 K, m1 = 0.0009724) was 0.00106 ± 1.2e-05 S·m2/mol and the molar conductivity (298.15 K, m1 = 0.001464) was 0.000942 ± 1.1e-05 S·m2/mol. For the same compound, the molar conductivity (298.15 K, m1 = 0.001942) was 0.000859 ± 1e-05 S·m2/mol, the molar conductivity (298.15 K, m1 = 0.002839) was 0.000759 ± 1e-05 S·m2/mol and the mass density (298.15 K) was 806.357 ± 0.22 kg/m3. It also gave a molar conductivity (303.15 K, m1 = 3.974e-05) of 0.00213 ± 2.2e-05 S·m2/mol, a molar conductivity (303.15 K, m1 = 6.936e-05) of 0.00203 ± 2.1e-05 S·m2/mol and a molar conductivity (303.15 K, m1 = 0.0001047) of 0.00193 ± 2e-05 S·m2/mol. It also gave a molar conductivity (303.15 K, m1 = 0.0001865) of 0.00177 ± 1.9e-05 S·m2/mol, a molar conductivity (303.15 K, m1 = 0.0002945) of 0.00162 ± 1.8e-05 S·m2/mol and a molar conductivity (303.15 K, m1 = 0.0004005) of 0.00151 ± 1.6e-05 S·m2/mol. It also gave a molar conductivity (303.15 K, m1 = 0.000688) of 0.00131 ± 1.5e-05 S·m2/mol, a molar conductivity (303.15 K, m1 = 0.0009724) of 0.00119 ± 1.3e-05 S·m2/mol and a molar conductivity (303.15 K, m1 = 0.001464) of 0.00106 ± 1.3e-05 S·m2/mol. It also gave a molar conductivity (303.15 K, m1 = 0.001942) of 0.000961 ± 1.1e-05 S·m2/mol, a molar conductivity (303.15 K, m1 = 0.002839) of 0.000848 ± 1.1e-05 S·m2/mol and a mass density (303.15 K) of 802.519 ± 0.22 kg/m3. For the same compound, the molar conductivity (308.15 K, m1 = 3.974e-05) was 0.002402 ± 2.4e-05 S·m2/mol, the molar conductivity (308.15 K, m1 = 6.936e-05) was 0.00228 ± 2.3e-05 S·m2/mol and the molar conductivity (308.15 K, m1 = 0.0001047) was 0.00217 ± 2.2e-05 S·m2/mol. The molar conductivity (308.15 K, m1 = 0.0001865) was 0.00198 ± 2.1e-05 S·m2/mol, the molar conductivity (308.15 K, m1 = 0.0002945) was 0.00181 ± 2e-05 S·m2/mol and the molar conductivity (308.15 K, m1 = 0.0004005) was 0.00169 ± 1.8e-05 S·m2/mol. For the same compound, the molar conductivity (308.15 K, m1 = 0.000688) was 0.00146 ± 1.7e-05 S·m2/mol, the molar conductivity (308.15 K, m1 = 0.0009724) was 0.00133 ± 1.5e-05 S·m2/mol and the molar conductivity (308.15 K, m1 = 0.001464) was 0.00117 ± 1.4e-05 S·m2/mol. For the same compound, the molar conductivity (308.15 K, m1 = 0.001942) was 0.00107 ± 1.2e-05 S·m2/mol, the molar conductivity (308.15 K, m1 = 0.002839) was 0.000941 ± 1.2e-05 S·m2/mol and the mass density (308.15 K) was 798.653 ± 0.23 kg/m3. It also gave a molar conductivity (313.15 K, m1 = 3.974e-05) of 0.00268 ± 2.7e-05 S·m2/mol, a molar conductivity (313.15 K, m1 = 6.936e-05) of 0.00255 ± 2.6e-05 S·m2/mol and a molar conductivity (313.15 K, m1 = 0.0001047) of 0.00242 ± 2.5e-05 S·m2/mol. The molar conductivity (313.15 K, m1 = 0.0001865) was 0.0022 ± 2.3e-05 S·m2/mol, the molar conductivity (313.15 K, m1 = 0.0002945) was 0.00201 ± 2.2e-05 S·m2/mol and the molar conductivity (313.15 K, m1 = 0.0004005) was 0.00187 ± 2e-05 S·m2/mol. It also gave a molar conductivity (313.15 K, m1 = 0.000688) of 0.00162 ± 1.9e-05 S·m2/mol, a molar conductivity (313.15 K, m1 = 0.0009724) of 0.00147 ± 1.7e-05 S·m2/mol and a molar conductivity (313.15 K, m1 = 0.001464) of 0.00129 ± 1.6e-05 S·m2/mol. The molar conductivity (313.15 K, m1 = 0.001942) was 0.00118 ± 1.4e-05 S·m2/mol, the molar conductivity (313.15 K, m1 = 0.002839) was 0.00103 ± 1.4e-05 S·m2/mol and the mass density (313.15 K) was 794.75 ± 0.23 kg/m3. For the same compound, the molar conductivity (318.15 K, m1 = 3.974e-05) was 0.003 ± 3e-05 S·m2/mol, the molar conductivity (318.15 K, m1 = 6.936e-05) was 0.00284 ± 2.9e-05 S·m2/mol and the molar conductivity (318.15 K, m1 = 0.0001047) was 0.00269 ± 2.8e-05 S·m2/mol. The molar conductivity (318.15 K, m1 = 0.0001865) was 0.00244 ± 2.6e-05 S·m2/mol, the molar conductivity (318.15 K, m1 = 0.0002945) was 0.00222 ± 2.5e-05 S·m2/mol and the molar conductivity (318.15 K, m1 = 0.0004005) was 0.00206 ± 2.2e-05 S·m2/mol. It also gave a molar conductivity (318.15 K, m1 = 0.000688) of 0.00178 ± 2.1e-05 S·m2/mol, a molar conductivity (318.15 K, m1 = 0.0009724) of 0.00161 ± 1.8e-05 S·m2/mol and a molar conductivity (318.15 K, m1 = 0.001464) of 0.00142 ± 1.7e-05 S·m2/mol. The molar conductivity (318.15 K, m1 = 0.001942) was 0.00129 ± 1.5e-05 S·m2/mol, the molar conductivity (318.15 K, m1 = 0.002839) was 0.00114 ± 1.5e-05 S·m2/mol and the mass density (318.15 K) was 790.804 ± 0.23 kg/m3.
